Experimental findings from US9809574B2, “Isoindoline or isoquinoline compounds, a process for their preparation and pharmaceutical compositions containing them” (LES LABORATOIRES SERVIER, priority 2013, dated 2017) are described below.

The subject of test [1] is RS4; 11 leukaemia cell line. As to the kind of experiment: In vitro cytotoxicity, Microculture Tetrazolium Assay (MTT). In kind it is cell-based. The settings on record: Homo sapiens, 11 cells exposed for 48 hours. As to the method:
The cytotoxicity studies were carried out on the RS4; 11 leukaemia cell line and on H146 small Cell Lung Carcinoma cell line. The cells are distributed onto microplates and exposed to the test compounds for 48 hours. The cell viability is then quantified by a colorimetric assay, the Microculture Tetrazolium Assay (Cancer Res., 1987, 47, 939-942).

In test [2] the target is Bcl-2 protein (histag-Bcl-2, UniProtKB P10415) (Homo sapiens (Human), UniProt P10415). As to the kind of experiment: Inhibition of Bcl-2 by the fluorescence polarisation technique. In kind it is binding. The settings on record: fluorescence polarisation test; incubation for 2 hours; read-out: IC50 (nM) Bcl-2 FP. The text has this: For partial inhibitors, the percentage fluorescence polarisation inhibition for a given concentration of the test compound is indicated.
Chain of Bcl-2 protein (P10415 whole entry): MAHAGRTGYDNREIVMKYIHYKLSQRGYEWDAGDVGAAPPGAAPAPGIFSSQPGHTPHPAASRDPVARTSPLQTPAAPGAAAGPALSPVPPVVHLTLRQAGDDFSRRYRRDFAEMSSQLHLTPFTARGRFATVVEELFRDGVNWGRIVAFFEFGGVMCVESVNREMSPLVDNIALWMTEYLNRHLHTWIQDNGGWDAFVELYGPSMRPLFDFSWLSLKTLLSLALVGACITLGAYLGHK

Regarding `C[C@@H]1Cc2ccccc2CN1C(=O)c1cc2c(cc1-c1cc(C(=O)N(C)c3ccc(O)cc3)c3n1CCCC3)CCN(C(=O)Cc1cccc(NCCN(C)C)c1)C2` [Example 123, 3-{2-[2-(3-{[2-(Dimethylamino)ethyl]amino}phenyl)acetyl]-7-[(3R)-3-methyl-1,2,3,4-tetrahydroisoquinoline-2-carbonyl]-1,2,3,4-tetrahydroisoquinolin-6-yl}-N-(4-hydroxyphenyl)-N-methyl-5,6,7,8-tetrahydroindolizine-1-carboxamide], the 50% inhibitory concentration (IC50) in test [1] was 8.3 nM; in test [2] it was 5.3 nM.
In the case of `CN(C(=O)c1cc(-c2cc3c(cc2C(=O)N2Cc4ccccc4C[C@H]2CN2CCOCC2)CN(C(=O)Oc2ccc(C(F)(F)F)cc2)CC3)n2c1CCCC2)c1ccc(O)cc1` [Example 124, 4-(Trifluoromethyl)phenyl 6-{1-[(4-hydroxyphenyl)(methyl)carbamoyl]-5,6,7,8-tetrahydroindolizin-3-yl}-7-[(3S)-3-(morpholin-4-ylmethyl)-1,2,3,4-tetrahydroisoquinoline-2-carbonyl]-1,2,3,4-tetrahydroisoquinoline-2-carboxylate], the half-inhibitory concentration (IC50) in test [1] worked out at 50 nM; in test [2], 12 nM.
On to `CN(C(=O)c1cc(-c2cc3c(cc2C(=O)N2Cc4ccccc4C[C@H]2CN2CCOCC2)CN(C(=O)Oc2ccc(OC(F)(F)F)cc2)CC3)n2c1CCCC2)c1ccc(O)cc1` [Example 125, 4-(Trifluoromethoxy)phenyl 6-{1-[(4-hydroxyphenyl)(methyl)carbamoyl]-5,6,7,8-tetrahydroindolizin-3-yl}-7-[(3S)-3-(morpholin-4-ylmethyl)-1,2,3,4-tetrahydroisoquinoline-2-carbonyl]-1,2,3,4-tetrahydroisoquinoline-2-carboxylate], for which the IC50 in test [1] is 49 nM; in test [2], 8.7 nM.
As to `CCc1ccc(OC(=O)N2CCc3cc(-c4cc(C(=O)N(C)c5ccc(O)cc5)c5n4CCCC5)c(C(=O)N4Cc5ccccc5C[C@H]4CN4CCOCC4)cc3C2)cc1` [Example 126, 4-Ethylphenyl 6-{1-[(4-hydroxyphenyl)(methyl)carbamoyl]-5,6,7,8-tetrahydroindolizin-3-yl}-7-[(3S)-3-(morpholin-4-ylmethyl)-1,2,3,4-tetrahydroisoquinoline-2-carbonyl]-1,2,3,4-tetrahydroisoquinoline-2-carboxylate], the IC50 in test [1] was 5.2 nM; in test [2], 5.9 nM.
With `CN(C(=O)c1cc(-c2cc3c(cc2C(=O)N2Cc4ccccc4C[C@H]2CN2CCOCC2)CN(C(=O)Oc2ccc(C#N)cc2)CC3)n2c1CCCC2)c1ccc(O)cc1` [Example 127, 4-Cyanophenyl 6-{1-[(4-hydroxyphenyl)(methyl)carbamoyl]-5,6,7,8-tetrahydroindolizin-3-yl}-7-[(3S)-3-(morpholin-4-ylmethyl)-1,2,3,4-tetrahydroisoquinoline-2-carbonyl]-1,2,3,4-tetrahydroisoquinoline-2-carboxylate], the IC50 came to 6.4 nM in test [1] and 3.3 nM in test [2].
Regarding `COc1ccccc1OC(=O)N1CCc2cc(-c3cc(C(=O)N(C)c4ccc(O)cc4)c4n3CCCC4)c(C(=O)N3Cc4ccccc4C[C@H]3CN3CCOCC3)cc2C1` [Example 128, 2-Methoxyphenyl 6-{1-[(4-hydroxyphenyl)(methyl)carbamoyl]-5,6,7,8-tetrahydroindolizin-3-yl}-7-[(3S)-3-(morpholin-4-ylmethyl)-1,2,3,4-tetrahydroisoquinoline-2-carbonyl]-1,2,3,4-tetrahydroisoquinoline-2-carboxylate], the IC50 in test [1] turned out to be 8.2 nM; in test [2] it was 3.5 nM.
Take `C[C@@H]1Cc2ccccc2CN1C(=O)c1cc2c(cc1-c1cc(C(=O)N(C)c3ccc(O)cc3)c3n1CCCC3)CCN(C(=O)Cc1ccc(CN3CCOCC3)cc1)C2` [Example 129, N-(4-Hydroxyphenyl)-N-methyl-3-{7-[(3R)-3-methyl-1,2,3,4-tetrahydroisoquinoline-2-carbonyl]-2-{2-[4-(morpholin-4-ylmethyl)phenyl]acetyl}-1,2,3,4-tetrahydroisoquinolin-6-yl}-5,6,7,8-tetrahydroindolizine-1-carboxamide]: the half-maximal inhibitory concentration (IC50) in test [1] came out at 39 nM; in test [2], 3.3 nM.
On to `Cc1c(C(=O)N(C)c2ccc(O)cc2)cc(-c2cc3c(cc2C(=O)N2Cc4ccccc4C[C@H]2CN2CCOCC2)CN(C(=O)CCc2ccccc2)CC3)n1C` [Example 130, N-(4-Hydroxyphenyl)-N,1,2-trimethyl-5-{7-[(3S)-3-(morpholin-4-ylmethyl)-1,2,3,4-tetrahydroisoquinoline-2-carbonyl]-2-(3-phenylpropanoyl)-1,2,3,4-tetrahydroisoquinolin-6-yl}-1H-pyrrole-3-carboxamide], for which the IC50 was found to be 36 nM in test [1] and 3.1 nM in test [2].
For the compound `Cc1c(C(=O)N(C)c2ccc(O)cc2)cc(-c2cc3c(cc2C(=O)N2Cc4ccccc4C[C@H]2CN2CCOCC2)CN(C(=O)/C=C/c2ccccc2)CC3)n1C` [Example 131, N-(4-Hydroxyphenyl)-N,1,2-trimethyl-5-{7-[(3S)-3-(morpholin-4-ylmethyl)-1,2,3,4-tetrahydroisoquinoline-2-carbonyl]-2-[(2E)-3-phenylprop-2-enoyl]-1,2,3,4-tetrahydroisoquinolin-6-yl}-1H-pyrrole-3-carboxamide], the figures for the IC50 in test [1] and in test [2] were 11 nM and 4 nM, respectively.
With `Cc1c(C(=O)N(C)c2ccc(O)cc2)cc(-c2cc3c(cc2C(=O)N2Cc4ccccc4C[C@H]2CN2CCOCC2)CN(C(=O)CCC2CCCCC2)CC3)n1C` [Example 132, 5-[2-(3-Cyclohexylpropanoyl)-7-[(3S)-3-(morpholin-4-ylmethyl)-1,2,3,4-tetrahydroisoquinoline-2-carbonyl]-1,2,3,4-tetrahydroisoquinolin-6-yl]-N-(4-hydroxyphenyl)-N,1,2-trimethyl-1H-pyrrole-3-carboxamide], the IC50 in test [1] was determined as 32 nM; in test [2], 4.6 nM.
Take `C[C@@H]1Cc2ccccc2CN1C(=O)c1cc2c(cc1-c1cc(C(=O)N(c3ccccc3)c3ccc(O)cc3)c3n1CCCC3)CN(C(=O)Oc1ccccc1)C2` [Example 133, Phenyl 5-{1-[(4-hydroxyphenyl)(phenyl)carbamoyl]-5,6,7,8-tetrahydroindolizin-3-yl}-6-[(3R)-3-methyl-1,2,3,4-tetrahydroisoquinoline-2-carbonyl]-2,3-dihydro-1H-isoindole-2-carboxylate]: the IC50 in test [1] was determined as 8.2 nM; in test [2] it was 7 nM.
For `C[C@@H]1Cc2ccccc2CN1C(=O)c1cc2c(cc1-c1cc(C(=O)N(c3ccccc3)c3ccc(O)cc3)c3n1CCCC3)CCN(C(=O)Cc1ccccc1)C2` [Example 134, N-(4-hydroxyphenyl)-3-{7-[(3R)-3-methyl-1,2,3,4-tetrahydroisoquinoline-2-carbonyl]-2-(2-phenylacetyl)-1,2,3,4-tetrahydroisoquinolin-6-yl}-N-phenyl-5,6,7,8-tetrahydroindolizine-1-carboxamide], the IC50 worked out at 2 nM in test [1] and 4.3 nM in test [2].
Take `COc1cccc(CCC(=O)N2CCc3cc(-c4cc(C(=O)N(C)c5ccc(O)cc5)c(C)n4C)c(C(=O)N4Cc5ccccc5C[C@H]4CN4CCOCC4)cc3C2)c1` [Example 135, N-(4-Hydroxyphenyl)-5-{2-[3-(3-methoxyphenyl)propanoyl]-7-[(3S)-3-(morpholin-4-ylmethyl)-1,2,3,4-tetrahydroisoquinoline-2-carbonyl]-1,2,3,4-tetrahydroisoquinolin-6-yl}-N,1,2-trimethyl-1H-pyrrole-3-carboxamide]: the values for the half-maximal inhibitory concentration (IC50) in test [1] and in test [2] were 99 nM and 8.4 nM, respectively.
